This is an account of results in PubChem BioAssay (NCI).

Test systems include RPMI-8226 leukemia; HCT-116 colon; U251 CNS; SF-268 CNS; K-562 leukemia; KM12 colon; NCI-H23 lung; PC-3 prostate; DU-145 prostate; CAKI-1 renal.
Common to all, as to assay: DTP human tumour cell line panel, 48 h

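Dose response: 5 concentrations. Exposure: 48 h. Format: 96-well plates. Endpoint: linear interpolation; highest concentration if not reached. At the GI50, growth is halved. TGI: concentration producing complete growth inhibition.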

As for `O=[N+]([O-])c1ccccc1S(=O)(=O)c1ccccc1`, the TGI in the test with RPMI-8226 leukemia, in the test on HCT-116 colon, in the test with U251 CNS, with SF-268 CNS, in the test on K-562 leukemia and in the test on KM12 colon was above 100 µM throughout. The compound also gave a concentration for total growth inhibition (TGI) in the test on NCI-H23 lung above 100 µM.
On to `Cc1ccc(NC(=O)C(Cc2c[nH]c3ccccc23)NC(=O)Oc2ccccc2)cc1C` (stereo unspecified), for which the total growth inhibition concentration (TGI) was above 100 µM in the test with PC-3 prostate; 80.9 µM in the test on RPMI-8226 leukemia; above 100 µM in the test with HCT-116 colon; above 100 µM with DU-145 prostate; above 100 µM with U251 CNS; above 100 µM with CAKI-1 renal. Besides, the TGI in the test on SF-268 CNS, in the test with K-562 leukemia, in the test on KM12 colon and in the test on NCI-H23 lung was above 100 µM each time.
Turning to `O=S(OC12CC3CC(CC(C3)C1)C2)c1cc(Cl)cc(Cl)c1OCc1ccccc1` (stereo unspecified), the concentration for total growth inhibition (TGI) in the test on HCT-116 colon, in the test on U251 CNS, with SF-268 CNS, with K-562 leukemia, in the test with KM12 colon and in the test on NCI-H23 lung was above 100 µM in each case.
For the compound `Cc1cn(C2CC(N)C(C(=O)NCC(=O)O)O2)c(=O)[nH]c1=O` (stereo unspecified), the TGI in the test on PC-3 prostate, with RPMI-8226 leukemia, in the test with HCT-116 colon, with DU-145 prostate, in the test with U251 CNS and in the test on CAKI-1 renal was above 100 µM each time. In addition, the TGI in the test with SF-268 CNS, in the test on K-562 leukemia, with KM12 colon and in the test with NCI-H23 lung was above 100 µM each time.
Regarding `CC1(C)C(=O)c2ccccc2OC1N1CCN(C2Oc3ccccc3C(=O)C2(C)C)CC1` (stereo unspecified), the TGI in the test with PC-3 prostate, with RPMI-8226 leukemia, in the test on HCT-116 colon, in the test with DU-145 prostate, in the test with U251 CNS and in the test with CAKI-1 renal was above 100 µM throughout. The TGI with SF-268 CNS, with K-562 leukemia, in the test with KM12 colon and in the test on NCI-H23 lung was above 100 µM in each case.
With `COc1ccc(-c2ccc(-c3ccc(C(=N)N)nc3)s2)cc1Cl`, the GI50 in the test on PC-3 prostate was 1.78 µM; with RPMI-8226 leukemia, 2.25 µM; in the test with DU-145 prostate, 1.77 µM; in the test with CAKI-1 renal, 1.74 µM; in the test on KM12 colon it was 1.81 µM. In addition, the TGI in the test on PC-3 prostate is 3.49 µM; in the test with RPMI-8226 leukemia it was 4.9 µM; in the test on DU-145 prostate, 3.15 µM; in the test on CAKI-1 renal, 3.12 µM; in the test on KM12 colon, 3.32 µM.
Regarding `Nc1ccccc1.[C-]#[O+].[C-]#[O+].[C-]#[O+].[C-]#[O+].[C-]#[O+].[Cr]`, the GI50 in the test with PC-3 prostate is 5.87 µM; in the test with RPMI-8226 leukemia, 3.39 µM; with HCT-116 colon, 2.9 µM; with DU-145 prostate, above 10 µM; with U251 CNS, 9.45 µM; with CAKI-1 renal, 2.04 µM. The GI50 with SF-268 CNS was 6.56 µM; in the test with K-562 leukemia, 2.98 µM; in the test on KM12 colon, 7.97 µM; in the test with NCI-H23 lung, 3.67 µM. The TGI was above 10 µM in the test on PC-3 prostate; above 10 µM with RPMI-8226 leukemia; above 10 µM in the test on HCT-116 colon; above 10 µM with DU-145 prostate; above 10 µM with U251 CNS; 8.3 µM with CAKI-1 renal. The TGI with SF-268 CNS, with K-562 leukemia, with KM12 colon and with NCI-H23 lung was above 10 µM throughout.
As to `COc1cc2oc(=O)cc(C)c2cc1O`, the TGI with PC-3 prostate, in the test on RPMI-8226 leukemia, in the test on HCT-116 colon, in the test on DU-145 prostate, in the test with U251 CNS and in the test with CAKI-1 renal was above 100 µM in each case. The concentration for total growth inhibition (TGI) in the test with SF-268 CNS, in the test with K-562 leukemia, in the test on KM12 colon and in the test on NCI-H23 lung was above 100 µM each time.
On to `C=CCN1C(=O)/C(=C/c2ccco2)N=C1SC1OC(COC(C)=O)C(OC(C)=O)C(OC(C)=O)C1OC(C)=O` (stereo unspecified), for which the TGI in the test on PC-3 prostate, in the test with RPMI-8226 leukemia, in the test on DU-145 prostate, in the test on U251 CNS, in the test on CAKI-1 renal and with K-562 leukemia was above 100 µM throughout. Besides, the TGI in the test on KM12 colon and with NCI-H23 lung was above 100 µM in each case.
